Where “and” joins values, the source holds several entries; their conditions need not be identical. Equal values may be shown once. Entries after “also recorded” stand apart in the source; their conditions may differ.
How the values were obtained:
S624A hERG = target: T1, S624A hERG (Homo sapiens, UniProt Q12809, S624A); test: Whole-cell patch-clamp recording of IhERG, pore helix mutant S624A; format: cell-based
T1 construct: expressed in transfected cells; host or cells: HEK293
Description: (§1) A HEK293 cell line stably expressing WT hERG channels was kindly donated by Prof. Craig January ([51]). The pore helix (T623A and S624A) and S6 helix (F656A) alanine mutants, attenuated-inactivation mutants (N588K and S620T), and S5 mutant F557L were all generated and used as described previously ([3], [18], [41], [52]). The HEK293 cell line stably expressing the hERG S6 helix mutant Y652A was used in this study as described previously ([52]).
(§2) HEK293 cells stably or transiently expressing hERG constructs were maintained as described previously ([18], [19], [52]). Cells were plated in 40-mm Petri dishes at least 48 h before transfection and incubated at 37 °C with 5% CO2. Cells were transfected either with Lipofectamine^TM 2000 (Invitrogen) or Lipofectamine LTX (Invitrogen) following the manufacturer's instructions. The amount of hERG construct DNA that was transfected varied between 0.1 and 1.0 μg depending on the level of functional expression. 0.15 μg of CD8 was cotransfected as a transfection marker, and successfully transfected cells were identified using Dynabeads® (Invitrogen). Cells were plated on sterilized glass shards in 40-mm Petri dishes and incubated at 37 °C (5% CO2) at least 24 h before electrophysiological recording; this was to allow time for cell recovery and hERG construct expression. […]

T623A hERG = target: T2, T623A hERG (Homo sapiens, UniProt Q12809, T623A); test: Whole-cell patch-clamp recording of IhERG, pore helix mutant T623A; format: cell-based
T2 construct: expressed in transfected cells; host or cells: HEK293
Description: as §1, §2

F656A hERG = target: T3, F656A hERG (Homo sapiens, UniProt Q12809, F656A); test: Whole-cell patch-clamp recording of IhERG, S6 helix mutant F656A; format: cell-based
T3 construct: expressed in transfected cells; host or cells: HEK293
Description: as §1
(§3) HEK293 cells stably or transiently expressing hERG constructs were maintained as described previously ([18], [19], [52]). Cells were plated in 40-mm Petri dishes at least 48 h before transfection and incubated at 37 °C with 5% CO2. Cells were transfected either with Lipofectamine^TM 2000 (Invitrogen) or Lipofectamine LTX (Invitrogen) following the manufacturer's instructions. The amount of hERG construct DNA that was transfected varied between 0.1 and 1.0 μg depending on the level of functional expression. 0.15 μg of CD8 was cotransfected as a transfection marker, and successfully transfected cells were identified using Dynabeads® (Invitrogen). Cells were plated on sterilized glass shards in 40-mm Petri dishes and incubated at 37 °C (5% CO2) at least 24 h before electrophysiological recording; this was to allow time for cell recovery and hERG construct expression.
(§4) For IhERG recordings, glass shards containing plated cells were placed in a recording chamber mounted on an inverted microscope (Nikon Diaphot). The cells were superfused continuously with Tyrode's solution containing 140 mM NaCl, 4 mM KCl, 2.5 mM CaCl2, 1 mM MgCl2, 10 mM glucose, 5 mM HEPES (titrated to pH 7.4 with NaOH). As described previously ([18], [19]), a modified “high-K^+” version of this solution (containing 94 mM KCl and 50 mM NaCl) was used to obtain recordable currents from comparatively poorly expressed hERG mutants (T623A and F656A). Patch pipettes (Schott number 8250 glass, A-M Systems Inc.) were pulled (Narishige, PP 830) and polished (Narishige, MF 83) to final resistance values between 2 and 4 megaohms. […]

N588K hERG = target: T4, N588K hERG (Homo sapiens, UniProt Q12809, N588K); test: Whole-cell patch-clamp recording of IhERG, attenuated-inactivation mutant N588K; format: cell-based
T4 construct: expressed in transfected cells; host or cells: HEK293
Description: as §1, §3, §4

S620T hERG = target: T5, S620T hERG (Homo sapiens, UniProt Q12809, S620T); test: Whole-cell patch-clamp recording of IhERG, attenuated-inactivation mutant S620T; format: cell-based
T5 construct: expressed in transfected cells; host or cells: HEK293
Description: as §1, §2

hERG = system: hERG; parameters: method as in earlier work; settings: HEK cells at room temperature; ref 30 (Cavalli et al.); cited from earlier work
WT hERG [1] = target: T6, WT hERG (Homo sapiens, UniProt Q12809); test: Whole-cell patch-clamp recording of IhERG, WT hERG in HEK293 cells at 37 °C; format: cell-based
T6 construct: expressed in transfected cells

Y652A hERG = target: T7, Y652A hERG (Homo sapiens, UniProt Q12809, Y652A); test: Whole-cell patch-clamp recording of IhERG, S6 helix mutant Y652A; format: cell-based
T7 construct: expressed in transfected cells
Description: as §1, §3, §4

WT hERG [2] = target: T6, WT hERG; test: Whole-cell patch-clamp recording of IhERG, WT hERG in HEK293 cells at 37 °C; format: cell-based; remark: listed apart in the source
Description: as §1, §3
For IhERG recordings, glass shards containing plated cells were placed in a recording chamber mounted on an inverted microscope (Nikon Diaphot). The cells were superfused continuously with Tyrode's solution containing 140 mM NaCl, 4 mM KCl, 2.5 mM CaCl2, 1 mM MgCl2, 10 mM glucose, 5 mM HEPES (titrated to pH 7.4 with NaOH). As described previously ([18], [19]), a modified “high-K^+” version of this solution (containing 94 mM KCl and 50 mM NaCl) was used to obtain recordable currents from comparatively poorly expressed hERG mutants (T623A and F656A). Patch pipettes (Schott number 8250 glass, A-M Systems Inc.) were pulled (Narishige, PP 830) and polished (Narishige, MF 83) to final resistance values between 2 and 4 megaohms. The patch pipettes were filled with intracellular solutio, containing 130 mM KCl, 1 mM MgCl2, 5 mM EGTA, 5 mM MgATP, and 10 mM HEPES (titrated to pH 7.2 with KOH). Pipette resistance compensation was between 70 and 80%. Cavalli-2 ([30]), which was synthesized by Ascent Scientific (Abcam Ltd.), was dissolved in DMSO to produce 100 μM, 1 mM, and 10 mM stock solutions. Stock solutions were diluted either in standard or high-K^+ Tyrode's solution as appropriate to obtain final concentrations stated under “Results.” Solutions were preheated to 37 ± 1 °C and applied to single cells using a homemade, multibarreled superfusion system, enabling rapid superfusate exchange (<1 s) ([53]). Thus, measurements of IhERG were made at 37 ± 1 °C as described previously ([18], [19], [52], [54], [55]).
All IhERG recordings were made using an Axopatch 200B amplifier (Axon Instruments, now Molecular Devices) and a CV203BU head stage. Data were acquired using a Digidata 1320 interface (Axon Instruments, now Molecular Devices). Data digitization rates were between 10 and 25 kHz during all voltage protocols, and an appropriate bandwidth between 2 and 10 kHz was set on the amplifier. For WT hERG and most of the mutant channels studied, activating voltage commands to +20 mV were used with tail currents observed at either […] (for most mutants) or −120 mV (for T623A and F656A) ([18][–][20], [33]). The level of block of WT and mutant IhERG by Cavalli-2 was attained by repetitive protocol application for 5 min, and fractional inhibition of IhERG tails was measured. […]

F557L hERG = target: T8, F557L hERG (Homo sapiens, UniProt Q12809, F557L); test: Whole-cell patch-clamp recording of IhERG, S5 mutant F557L; format: cell-based
T8 construct: expressed in transfected cells; host or cells: HEK293
Description: as §1, §3
The F557L hERG mutation was generated using the Quik Change® site-directed mutagenesis kit (Stratagene, La Jolla, CA). In brief, a pair of complementary oligonucleotide primers containing the mutation (forward primer sequence, 5′[…]-3′; reverse primer sequence, 5′[…]-3′; synthesized by Sigma-Genosys, Haverhill, UK) was used in a PCR (95 °C for 1 min, 60 °C for 1 min, and 68 °C for 16 min for 18 cycles) by using hERG in a modified pcDNA3.0 vector as a DNA template. A DpnI digest of the PCR mixture was then performed for 1 h at 37 °C. Competent DH5α Escherichia coli (Invitrogen) were transformed using standard procedures. The mutation was confirmed by sequencing of the entire ORF (Eurofins MWG Operon, Ebersberg, Germany). […]

T1 sequence (Q12809 whole entry S624A): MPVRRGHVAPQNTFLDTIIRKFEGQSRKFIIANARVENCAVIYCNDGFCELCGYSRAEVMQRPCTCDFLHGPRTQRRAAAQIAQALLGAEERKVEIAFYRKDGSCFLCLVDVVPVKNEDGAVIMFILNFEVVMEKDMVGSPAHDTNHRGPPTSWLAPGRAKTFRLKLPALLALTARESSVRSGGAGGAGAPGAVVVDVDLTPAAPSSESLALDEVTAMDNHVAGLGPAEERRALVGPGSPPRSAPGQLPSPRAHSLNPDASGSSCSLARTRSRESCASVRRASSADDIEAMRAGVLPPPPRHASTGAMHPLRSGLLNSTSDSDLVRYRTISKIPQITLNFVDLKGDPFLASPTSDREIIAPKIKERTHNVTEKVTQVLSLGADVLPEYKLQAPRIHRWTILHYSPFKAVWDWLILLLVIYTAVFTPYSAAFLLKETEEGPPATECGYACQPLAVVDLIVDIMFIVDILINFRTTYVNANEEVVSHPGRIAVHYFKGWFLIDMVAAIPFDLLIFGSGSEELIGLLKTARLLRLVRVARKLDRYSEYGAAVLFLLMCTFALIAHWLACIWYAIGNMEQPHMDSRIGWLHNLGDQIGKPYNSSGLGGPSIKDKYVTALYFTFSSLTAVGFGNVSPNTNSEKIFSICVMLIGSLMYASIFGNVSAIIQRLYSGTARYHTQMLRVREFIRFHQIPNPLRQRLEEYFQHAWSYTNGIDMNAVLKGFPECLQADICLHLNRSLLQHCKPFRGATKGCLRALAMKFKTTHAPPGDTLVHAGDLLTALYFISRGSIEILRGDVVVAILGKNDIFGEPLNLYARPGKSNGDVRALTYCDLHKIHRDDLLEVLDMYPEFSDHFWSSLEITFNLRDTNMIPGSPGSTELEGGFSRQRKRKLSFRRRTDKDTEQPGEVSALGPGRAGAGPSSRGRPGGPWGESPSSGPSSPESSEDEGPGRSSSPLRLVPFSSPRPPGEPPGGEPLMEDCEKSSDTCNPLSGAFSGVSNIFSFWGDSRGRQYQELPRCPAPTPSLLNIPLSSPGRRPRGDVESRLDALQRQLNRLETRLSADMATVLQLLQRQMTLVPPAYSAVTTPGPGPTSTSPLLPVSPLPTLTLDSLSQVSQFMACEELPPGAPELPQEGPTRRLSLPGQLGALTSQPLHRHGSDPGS
T7 sequence (Q12809 whole entry Y652A): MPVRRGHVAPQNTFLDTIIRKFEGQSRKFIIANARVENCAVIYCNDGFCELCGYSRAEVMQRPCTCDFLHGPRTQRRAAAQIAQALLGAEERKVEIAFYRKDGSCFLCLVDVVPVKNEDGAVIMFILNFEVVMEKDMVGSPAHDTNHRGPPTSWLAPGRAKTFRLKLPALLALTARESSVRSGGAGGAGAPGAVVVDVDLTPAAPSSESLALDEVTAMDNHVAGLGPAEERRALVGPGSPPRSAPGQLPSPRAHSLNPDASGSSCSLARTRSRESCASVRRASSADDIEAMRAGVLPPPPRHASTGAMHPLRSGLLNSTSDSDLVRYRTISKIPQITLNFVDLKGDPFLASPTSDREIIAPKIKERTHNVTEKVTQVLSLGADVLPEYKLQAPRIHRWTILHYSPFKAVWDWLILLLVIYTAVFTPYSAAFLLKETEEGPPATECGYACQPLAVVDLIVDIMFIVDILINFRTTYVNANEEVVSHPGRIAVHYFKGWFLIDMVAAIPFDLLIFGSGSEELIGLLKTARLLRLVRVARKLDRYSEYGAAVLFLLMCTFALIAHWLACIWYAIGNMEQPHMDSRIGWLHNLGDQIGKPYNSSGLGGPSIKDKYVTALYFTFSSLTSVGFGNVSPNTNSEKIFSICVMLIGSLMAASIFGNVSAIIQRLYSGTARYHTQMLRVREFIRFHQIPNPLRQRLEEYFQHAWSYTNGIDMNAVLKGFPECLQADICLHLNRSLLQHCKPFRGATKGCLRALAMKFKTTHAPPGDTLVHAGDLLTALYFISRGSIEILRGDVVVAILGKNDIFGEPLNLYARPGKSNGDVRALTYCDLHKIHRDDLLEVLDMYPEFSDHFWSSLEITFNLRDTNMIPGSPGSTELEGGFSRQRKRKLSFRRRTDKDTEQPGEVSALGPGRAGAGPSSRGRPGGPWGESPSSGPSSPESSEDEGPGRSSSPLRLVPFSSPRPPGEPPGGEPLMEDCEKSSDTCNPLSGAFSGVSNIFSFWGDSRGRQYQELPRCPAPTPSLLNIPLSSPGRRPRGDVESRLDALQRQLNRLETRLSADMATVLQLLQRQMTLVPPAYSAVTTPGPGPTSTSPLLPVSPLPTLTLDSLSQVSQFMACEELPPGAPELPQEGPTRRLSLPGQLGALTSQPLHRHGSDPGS
T4 sequence (Q12809 whole entry N588K): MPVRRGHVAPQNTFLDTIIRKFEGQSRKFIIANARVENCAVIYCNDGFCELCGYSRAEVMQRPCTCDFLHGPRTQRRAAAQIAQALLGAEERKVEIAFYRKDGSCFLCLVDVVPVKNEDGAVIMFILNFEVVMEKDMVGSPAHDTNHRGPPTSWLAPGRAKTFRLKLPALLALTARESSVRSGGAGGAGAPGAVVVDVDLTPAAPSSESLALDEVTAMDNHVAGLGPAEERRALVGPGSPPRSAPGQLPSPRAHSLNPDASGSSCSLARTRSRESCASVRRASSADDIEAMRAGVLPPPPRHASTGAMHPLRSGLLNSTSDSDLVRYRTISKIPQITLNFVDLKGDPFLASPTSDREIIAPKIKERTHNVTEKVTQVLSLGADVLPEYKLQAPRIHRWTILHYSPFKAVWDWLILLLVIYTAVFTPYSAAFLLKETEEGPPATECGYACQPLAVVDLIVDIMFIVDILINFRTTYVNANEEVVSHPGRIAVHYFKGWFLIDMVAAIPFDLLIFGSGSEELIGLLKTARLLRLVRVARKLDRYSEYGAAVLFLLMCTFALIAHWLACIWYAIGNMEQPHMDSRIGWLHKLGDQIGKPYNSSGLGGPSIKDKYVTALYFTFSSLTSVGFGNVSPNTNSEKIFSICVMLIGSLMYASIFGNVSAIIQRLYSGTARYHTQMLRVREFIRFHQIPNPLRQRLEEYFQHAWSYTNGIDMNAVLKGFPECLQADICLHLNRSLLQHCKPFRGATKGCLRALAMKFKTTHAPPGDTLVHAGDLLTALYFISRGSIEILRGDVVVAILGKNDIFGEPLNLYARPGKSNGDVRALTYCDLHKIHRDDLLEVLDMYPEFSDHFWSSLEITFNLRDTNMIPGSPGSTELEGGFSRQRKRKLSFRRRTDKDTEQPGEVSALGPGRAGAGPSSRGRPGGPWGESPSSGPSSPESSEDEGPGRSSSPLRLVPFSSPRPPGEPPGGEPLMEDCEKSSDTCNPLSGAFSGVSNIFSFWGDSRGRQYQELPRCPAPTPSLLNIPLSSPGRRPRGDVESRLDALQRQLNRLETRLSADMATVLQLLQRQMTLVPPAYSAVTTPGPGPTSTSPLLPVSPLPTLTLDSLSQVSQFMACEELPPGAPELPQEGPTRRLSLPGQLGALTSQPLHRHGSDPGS
T6 sequence (Q12809 whole entry): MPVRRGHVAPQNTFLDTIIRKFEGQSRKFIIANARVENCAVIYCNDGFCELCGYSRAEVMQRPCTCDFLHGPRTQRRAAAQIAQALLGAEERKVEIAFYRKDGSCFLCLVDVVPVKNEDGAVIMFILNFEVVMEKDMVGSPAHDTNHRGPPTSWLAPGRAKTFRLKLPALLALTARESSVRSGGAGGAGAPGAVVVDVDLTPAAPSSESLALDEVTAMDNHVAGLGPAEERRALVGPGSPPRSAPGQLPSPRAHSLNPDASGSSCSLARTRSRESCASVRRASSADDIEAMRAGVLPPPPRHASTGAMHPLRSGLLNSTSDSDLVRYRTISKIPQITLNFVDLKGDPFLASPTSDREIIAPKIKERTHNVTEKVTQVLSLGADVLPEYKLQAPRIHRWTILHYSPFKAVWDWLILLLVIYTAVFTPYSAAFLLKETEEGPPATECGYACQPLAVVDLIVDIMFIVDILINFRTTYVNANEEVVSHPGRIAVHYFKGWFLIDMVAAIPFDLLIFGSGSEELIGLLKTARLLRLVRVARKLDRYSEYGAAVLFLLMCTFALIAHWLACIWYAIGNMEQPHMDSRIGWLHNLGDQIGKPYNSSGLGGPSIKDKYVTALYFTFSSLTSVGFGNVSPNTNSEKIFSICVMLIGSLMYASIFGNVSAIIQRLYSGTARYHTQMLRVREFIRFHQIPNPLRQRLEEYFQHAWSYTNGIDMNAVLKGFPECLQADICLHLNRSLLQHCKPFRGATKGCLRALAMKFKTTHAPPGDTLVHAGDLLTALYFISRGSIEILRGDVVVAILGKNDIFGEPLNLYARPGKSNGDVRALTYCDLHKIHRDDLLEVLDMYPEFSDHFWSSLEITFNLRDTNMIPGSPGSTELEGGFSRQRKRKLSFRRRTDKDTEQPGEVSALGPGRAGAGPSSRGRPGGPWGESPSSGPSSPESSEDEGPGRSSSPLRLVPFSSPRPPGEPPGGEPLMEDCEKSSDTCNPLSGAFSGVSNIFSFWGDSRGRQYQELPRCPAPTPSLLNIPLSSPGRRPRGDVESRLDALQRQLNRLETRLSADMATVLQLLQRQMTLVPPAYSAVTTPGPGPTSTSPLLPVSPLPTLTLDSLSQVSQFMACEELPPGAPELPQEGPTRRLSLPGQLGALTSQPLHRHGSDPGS

## c1ccc(CCCNCCC(c2ccccc2)c2ccccc2)cc1 [Cavalli-2]
S624A hERG; S624A vs WT-1
  Potency reduction compared with its WT-control (fold WT IC50): 7 fold and 7.4 fold
S624A hERG; human, HEK293 cells expressing S624A hERG, pH 7.4, S624A, −40 mV, 4 mM K+
  IC50 at 5 min: 262 nM
T623A hERG; T623A vs WT-2
  Potency reduction compared with its WT-control (fold WT IC50): 16 fold and 16.1 fold
T623A hERG; human, HEK293 cells expressing T623A hERG, pH 7.4, T623A, −120 mV, 94 mM K+
  IC50 at 5 min: 281 nM
F656A hERG; 1 μM, −120 mV, high K+
  reduction of F656A IhERG: ~40%
F656A hERG; F656A vs WT-2
  Potency reduction compared with its WT-control (fold WT IC50): 75 fold and 75.1 fold
F656A hERG; human, HEK293 cells expressing F656A hERG, pH 7.4, F656A, −120 mV, 94 mM K+
  IC50 at 5 min: 1320 nM
N588K hERG; N588K vs WT-1
  Potency reduction compared with its WT-control (fold WT IC50): 15 fold and 15.3 fold
N588K hERG; human, HEK293 cells expressing N588K hERG, pH 7.4, 300 nM
  inhibition at 5 min, 0.3 µM: < 50%
N588K hERG; human, HEK293 cells expressing N588K hERG, pH 7.4, N588K, −40 mV, 4 mM K+
  IC50 at 5 min: 544 nM
S620T hERG; S620T vs WT-1
  Potency reduction compared with its WT-control (fold WT IC50): 54 fold and 53.8 fold
S620T hERG; human, HEK293 cells expressing S620T hERG, pH 7.4, S620T, −40 mV, 4 mM K+
  IC50 at 5 min: 1920 nM
hERG
  IC50: 17 nM
WT hERG [1]; 30 nM, standard protocol, tails at −40 mV, 4 mM K+
  IhERG tail inhibition: 50.2 ± 2.0%
WT hERG [1]; 30 nM, tails at −40 mV
  change in t½ of IhERG deactivation: No significant change
WT hERG [1]; WT-1, IhERG tails, voltage step −40 mV, 4 mM K+, HEK293, 37 °C
  IC50: 35.6 nM
WT hERG [1]; human, HEK293 cells stably expressing WT hERG, pH 7.4, 30 nM, AP voltage clamp, read-out: inhibition of peak IhERG during ventricular action potential waveform
  inhibition at 5 min, 0.03 µM: 42.3 ± 6.7%
WT hERG [1]; human, HEK293 cells stably expressing WT hERG, pH 7.4, 30 nM, standard protocol, tails at −40 mV, 4 mM K+, read-out: IhERG tail inhibition
  inhibition at 5 min, 30 nM: ~50%
WT hERG [1]; human, HEK293 cells stably expressing WT hERG, pH 7.4, WT-1, IhERG tails, voltage step −40 mV, 4 mM K+, HEK293, 37 °C
  IC50 at 5 min: 36 nM
Y652A hERG; 300 nM, −20 to +40 mV
  voltage dependence of Y652A IhERG tail inhibition: eliminated voltage dependence of inhibition; also recorded: no significant voltage dependence
Y652A hERG; Y652A vs WT-1
  Potency reduction compared with its WT-control (fold WT IC50): 17 fold and 16.7 fold
Y652A hERG; human, HEK293 cells stably expressing Y652A hERG, pH 7.4, Y652A, −40 mV, 4 mM K+
  IC50 at 5 min: 594 nM
WT hERG [2]; 30 nM
  k (slope) of IhERG activation in the presence of compound: 5.0 ± 1.5 and 5.03 ± 1.50 and 4.8 ± 1.1
  k of IhERG inactivation in the presence of compound: 19.9 ± 1.1 and 20.1 ± 1.3
WT hERG [2]; 30 nM vs control
  ΔV0.5 of activation: -4.68 mV
WT hERG [2]; 30 nM, +40 mV after 2-ms step to −120 mV, control 1.4 ± 0.2 ms
  inactivation τ in the presence of compound: 1.6 ± 0.5 ms
WT hERG [2]; 30 nM, test depolarizations −30 to +60 mV
  voltage dependence of fractional inhibition of WT IhERG: voltage-dependent over the tested range
WT hERG [2]; 30 nM, three-step protocol 0/+40/0 mV
  fractional inhibition of IhERG during +40-mV phase vs 0-mV phases: significantly reduced
WT hERG [2]; KD at +60 mV vs 0 mV
  δ value (Woodhull analysis): 0.2
WT hERG [2]; human, HEK293 cells stably expressing WT hERG, pH 7.4, WT-2, inward IhERG tails, voltage step −120 mV, 94 mM K+
  IC50 at 5 min: 17.5 nM
WT hERG [2]; human, HEK293 cells stably expressing WT hERG, pH 7.4, washout after 30 nM, five cells, read-out: recovery on washout, of control amplitude
  recovery at 30 nM: 59.5 ± 4.1%
F557L hERG; 300 nM, −20 to +40 mV
  voltage dependence of F557L IhERG tail inhibition: eliminated voltage dependence of inhibition; also recorded: no significant voltage dependence; also recorded: nearly abolished
F557L hERG; F557L vs WT-1
  Potency reduction compared with its WT-control (fold WT IC50): 10 fold and 9.5 fold
F557L hERG; human, HEK293 cells expressing F557L hERG, pH 7.4, F557L, −40 mV, 4 mM K+
  IC50 at 5 min: 339 nM

From paper PMC5936838, “Structural implications of hERG K^+ channel block by a high-affinity minimally structured blocker” (The Journal of Biological Chemistry, 2018)
